As a reminder, the inhibition is how much of the control response was suppressed. As usually defined, the EC50 is the concentration needed to bring the measured effect to its halfway point. Higher therefore signals weaker potency.

Experiment [1] concerns the target T1, Mitogen-activated protein kinase 12 (Homo sapiens) (UniProt P53778).
T1 sequence (whole entry): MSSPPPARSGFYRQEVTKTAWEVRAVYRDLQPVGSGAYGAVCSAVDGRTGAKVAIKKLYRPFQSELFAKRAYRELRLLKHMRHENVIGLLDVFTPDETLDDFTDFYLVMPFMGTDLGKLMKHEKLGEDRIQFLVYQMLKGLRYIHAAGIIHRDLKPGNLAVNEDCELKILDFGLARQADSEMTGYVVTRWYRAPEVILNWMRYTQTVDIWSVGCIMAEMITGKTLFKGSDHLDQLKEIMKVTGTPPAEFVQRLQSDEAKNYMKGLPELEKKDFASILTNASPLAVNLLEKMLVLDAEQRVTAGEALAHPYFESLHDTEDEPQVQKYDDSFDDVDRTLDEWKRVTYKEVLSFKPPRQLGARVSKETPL
As to the kind of experiment: Inhibition of human recombinant p38gamma at 40 nM related to control ULK1.

Experiment [2] addresses Mitogen-activated protein kinase 1 (Homo sapiens) (UniProt P28482). Briefly: Inhibition of human recombinant Erk2 at 40 nM in presence of ATP by radiometric assay relative to control.
Experiment [3] addresses Ephrin type-A receptor 4 (Homo sapiens) (UniProt P54764). As to the kind of experiment: Inhibition of human recombinant EphA4 at 500 nM in presence of ATP by radiometric assay relative to control.
Experiment [4] has as its target Protein kinase C eta type (Homo sapiens) (UniProt P24723). Briefly: Inhibition of human recombinant PKCH at 500 nM in presence of ATP by radiometric assay relative to control.
The target of experiment [5] is Serine/threonine-protein kinase D2 (Homo sapiens) (UniProt Q9BZL6). Briefly: Inhibition of human recombinant PKD2 at 500 nM in presence of ATP by radiometric assay relative to control.
Chain of Serine/threonine-protein kinase D2 (Homo sapiens) (Q9BZL6 whole entry, looked up): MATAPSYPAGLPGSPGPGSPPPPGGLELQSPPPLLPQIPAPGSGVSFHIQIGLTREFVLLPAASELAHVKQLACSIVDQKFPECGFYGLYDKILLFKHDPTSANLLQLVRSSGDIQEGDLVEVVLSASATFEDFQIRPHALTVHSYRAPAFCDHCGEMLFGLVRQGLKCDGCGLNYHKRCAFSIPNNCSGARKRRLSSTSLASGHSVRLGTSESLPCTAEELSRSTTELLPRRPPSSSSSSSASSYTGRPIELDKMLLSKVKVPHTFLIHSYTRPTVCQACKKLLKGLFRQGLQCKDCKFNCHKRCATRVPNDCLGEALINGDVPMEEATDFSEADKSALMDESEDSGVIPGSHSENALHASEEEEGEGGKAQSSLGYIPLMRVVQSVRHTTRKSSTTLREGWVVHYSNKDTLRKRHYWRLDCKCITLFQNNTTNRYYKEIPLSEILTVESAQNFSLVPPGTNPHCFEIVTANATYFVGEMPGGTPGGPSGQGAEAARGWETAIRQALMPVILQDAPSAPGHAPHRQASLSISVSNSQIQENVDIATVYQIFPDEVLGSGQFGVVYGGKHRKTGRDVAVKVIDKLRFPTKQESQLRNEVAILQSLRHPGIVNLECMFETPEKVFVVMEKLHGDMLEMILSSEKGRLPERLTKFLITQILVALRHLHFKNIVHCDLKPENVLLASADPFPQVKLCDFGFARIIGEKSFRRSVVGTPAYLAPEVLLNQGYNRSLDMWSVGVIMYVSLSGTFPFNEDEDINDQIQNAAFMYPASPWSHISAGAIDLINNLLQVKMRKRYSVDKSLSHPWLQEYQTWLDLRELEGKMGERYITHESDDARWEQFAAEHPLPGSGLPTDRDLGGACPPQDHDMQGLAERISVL
Experiment [6] deals with Interleukin-1 receptor-associated kinase 1 (Homo sapiens) (UniProt P51617). Briefly: Inhibition of human recombinant IRAK1 at 500 nM in presence of ATP by radiometric assay relative to control.
Chain of Interleukin-1 receptor-associated kinase 1 (Homo sapiens) (P51617 whole entry, looked up): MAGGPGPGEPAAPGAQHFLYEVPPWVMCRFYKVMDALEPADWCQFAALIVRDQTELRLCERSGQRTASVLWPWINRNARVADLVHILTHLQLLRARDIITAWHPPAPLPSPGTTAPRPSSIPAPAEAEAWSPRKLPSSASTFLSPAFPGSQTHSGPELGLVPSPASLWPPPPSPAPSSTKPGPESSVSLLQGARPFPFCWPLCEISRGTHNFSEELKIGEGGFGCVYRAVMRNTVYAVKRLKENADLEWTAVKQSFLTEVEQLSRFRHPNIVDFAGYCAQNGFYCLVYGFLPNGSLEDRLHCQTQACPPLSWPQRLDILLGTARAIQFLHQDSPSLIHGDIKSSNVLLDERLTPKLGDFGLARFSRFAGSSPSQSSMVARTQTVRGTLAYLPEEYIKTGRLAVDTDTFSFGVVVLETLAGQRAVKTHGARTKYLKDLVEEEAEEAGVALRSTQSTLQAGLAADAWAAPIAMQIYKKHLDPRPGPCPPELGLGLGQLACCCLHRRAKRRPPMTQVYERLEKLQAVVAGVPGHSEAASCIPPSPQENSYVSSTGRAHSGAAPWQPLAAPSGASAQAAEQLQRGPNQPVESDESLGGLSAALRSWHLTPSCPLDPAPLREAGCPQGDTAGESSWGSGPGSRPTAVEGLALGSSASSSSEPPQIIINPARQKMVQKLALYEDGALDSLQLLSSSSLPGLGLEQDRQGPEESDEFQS
For experiment [7], the target named is Tyrosine-protein kinase Yes (Homo sapiens) (UniProt P07947). As to the kind of experiment: Inhibition of human recombinant YES at 500 nM in presence of ATP by radiometric assay relative to control.
Chain of Tyrosine-protein kinase Yes (Homo sapiens) (P07947 2-543 limits assumed): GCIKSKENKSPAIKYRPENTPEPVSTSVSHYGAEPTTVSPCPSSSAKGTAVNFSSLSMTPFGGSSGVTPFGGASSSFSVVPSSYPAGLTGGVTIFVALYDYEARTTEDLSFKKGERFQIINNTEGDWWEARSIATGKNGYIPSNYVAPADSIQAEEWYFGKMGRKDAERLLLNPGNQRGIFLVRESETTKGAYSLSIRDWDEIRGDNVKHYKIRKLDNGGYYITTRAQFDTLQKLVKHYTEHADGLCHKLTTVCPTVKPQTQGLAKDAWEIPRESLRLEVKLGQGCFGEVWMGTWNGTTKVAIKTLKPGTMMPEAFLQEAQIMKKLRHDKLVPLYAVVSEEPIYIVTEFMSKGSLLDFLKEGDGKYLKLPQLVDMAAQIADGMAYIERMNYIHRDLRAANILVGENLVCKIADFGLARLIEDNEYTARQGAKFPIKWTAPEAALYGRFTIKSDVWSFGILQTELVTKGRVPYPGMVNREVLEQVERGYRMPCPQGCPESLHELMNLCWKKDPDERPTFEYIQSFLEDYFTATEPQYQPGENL
Experiment [8] deals with T2, Ephrin type-B receptor 4 (Homo sapiens) (UniProt P54760).
T2 sequence (whole entry): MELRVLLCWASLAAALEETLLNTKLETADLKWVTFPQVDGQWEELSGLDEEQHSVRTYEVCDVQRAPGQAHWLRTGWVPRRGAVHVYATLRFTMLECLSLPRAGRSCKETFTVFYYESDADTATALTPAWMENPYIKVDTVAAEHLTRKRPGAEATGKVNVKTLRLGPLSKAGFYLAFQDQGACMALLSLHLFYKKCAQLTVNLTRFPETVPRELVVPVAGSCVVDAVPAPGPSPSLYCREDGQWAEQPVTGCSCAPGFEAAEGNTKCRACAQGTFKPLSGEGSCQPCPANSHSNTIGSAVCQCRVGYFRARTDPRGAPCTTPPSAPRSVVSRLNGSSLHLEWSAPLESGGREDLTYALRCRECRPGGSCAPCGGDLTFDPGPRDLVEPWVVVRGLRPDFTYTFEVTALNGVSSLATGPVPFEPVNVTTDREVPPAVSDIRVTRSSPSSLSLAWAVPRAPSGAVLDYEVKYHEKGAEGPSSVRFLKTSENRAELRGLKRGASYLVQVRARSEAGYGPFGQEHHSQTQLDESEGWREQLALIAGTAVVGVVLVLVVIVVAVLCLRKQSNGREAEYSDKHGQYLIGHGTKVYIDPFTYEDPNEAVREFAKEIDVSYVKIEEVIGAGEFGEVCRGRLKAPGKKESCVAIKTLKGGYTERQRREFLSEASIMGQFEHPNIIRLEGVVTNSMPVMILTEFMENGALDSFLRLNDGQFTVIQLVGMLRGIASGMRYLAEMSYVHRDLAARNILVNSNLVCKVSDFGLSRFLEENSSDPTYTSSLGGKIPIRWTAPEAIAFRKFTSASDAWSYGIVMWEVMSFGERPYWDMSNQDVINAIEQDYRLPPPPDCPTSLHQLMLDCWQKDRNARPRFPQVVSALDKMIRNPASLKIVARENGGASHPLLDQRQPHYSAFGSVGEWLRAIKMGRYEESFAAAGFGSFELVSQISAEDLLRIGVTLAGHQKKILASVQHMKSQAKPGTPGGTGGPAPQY
Briefly: Inhibition of human recombinant EphB4 at 500 nM in presence of ATP by radiometric assay relative to control.

Experiment [9] deals with T3, Mitogen-activated protein kinase 13 (Homo sapiens) (UniProt O15264).
T3 sequence (whole entry): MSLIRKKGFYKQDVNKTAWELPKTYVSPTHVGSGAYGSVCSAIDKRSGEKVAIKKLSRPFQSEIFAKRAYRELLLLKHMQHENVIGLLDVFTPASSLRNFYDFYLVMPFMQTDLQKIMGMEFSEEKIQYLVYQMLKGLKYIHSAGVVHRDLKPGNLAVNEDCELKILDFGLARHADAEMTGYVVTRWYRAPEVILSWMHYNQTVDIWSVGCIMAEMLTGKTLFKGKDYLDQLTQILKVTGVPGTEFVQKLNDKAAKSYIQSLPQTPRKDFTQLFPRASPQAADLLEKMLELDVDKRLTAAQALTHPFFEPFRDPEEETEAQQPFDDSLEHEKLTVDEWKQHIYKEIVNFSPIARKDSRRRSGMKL
Briefly: Inhibition of human recombinant p38delta at 500 nM related to control ULK1.

Experiment [10] deals with Serine/threonine-protein kinase ULK1 (Homo sapiens, UniProt O75385). Briefly: Inhibition of ULK1 phosphorylation at Ser15 residue in HEK293 cells incubated for 1 hr by chemiluminescence based immunoblotting analysis. Format: cell-based, HEK293T. A general note: In western blotting, separated proteins are transferred to a membrane and probed.
Chain of Serine/threonine-protein kinase ULK1 (O75385 whole entry): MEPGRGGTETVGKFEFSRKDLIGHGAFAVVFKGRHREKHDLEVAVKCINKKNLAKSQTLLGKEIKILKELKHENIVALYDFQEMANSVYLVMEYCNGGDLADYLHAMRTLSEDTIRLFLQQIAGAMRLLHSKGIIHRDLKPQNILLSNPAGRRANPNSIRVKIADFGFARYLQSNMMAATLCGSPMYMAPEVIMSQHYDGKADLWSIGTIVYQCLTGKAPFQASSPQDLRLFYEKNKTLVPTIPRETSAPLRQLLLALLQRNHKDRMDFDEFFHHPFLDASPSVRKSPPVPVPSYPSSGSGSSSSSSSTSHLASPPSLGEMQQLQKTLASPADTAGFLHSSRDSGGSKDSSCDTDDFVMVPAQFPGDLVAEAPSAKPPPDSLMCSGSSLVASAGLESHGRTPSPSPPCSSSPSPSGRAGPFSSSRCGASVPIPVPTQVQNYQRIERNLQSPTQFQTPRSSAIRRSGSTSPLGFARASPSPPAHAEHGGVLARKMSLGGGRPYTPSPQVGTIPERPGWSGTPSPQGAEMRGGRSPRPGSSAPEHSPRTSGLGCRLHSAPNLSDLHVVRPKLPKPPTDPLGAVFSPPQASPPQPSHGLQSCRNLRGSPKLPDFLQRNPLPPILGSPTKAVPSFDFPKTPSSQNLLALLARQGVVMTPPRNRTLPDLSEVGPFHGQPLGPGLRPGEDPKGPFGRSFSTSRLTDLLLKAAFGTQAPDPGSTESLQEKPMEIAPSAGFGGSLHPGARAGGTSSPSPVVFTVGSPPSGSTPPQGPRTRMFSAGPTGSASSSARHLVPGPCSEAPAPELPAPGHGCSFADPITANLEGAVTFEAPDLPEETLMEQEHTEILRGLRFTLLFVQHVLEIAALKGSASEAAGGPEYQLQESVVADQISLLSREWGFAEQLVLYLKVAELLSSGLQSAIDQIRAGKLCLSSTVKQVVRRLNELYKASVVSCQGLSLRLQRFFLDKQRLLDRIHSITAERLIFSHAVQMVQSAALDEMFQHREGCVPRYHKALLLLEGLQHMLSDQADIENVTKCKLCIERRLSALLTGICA
The target of experiment [11] is RAF proto-oncogene serine/threonine-protein kinase (Homo sapiens) (UniProt P04049). Briefly: Inhibition of human recombinant RAF1 at 15 nM in presence of ATP by radiometric assay relative to control.
Chain of RAF proto-oncogene serine/threonine-protein kinase (Homo sapiens) (P04049 whole entry): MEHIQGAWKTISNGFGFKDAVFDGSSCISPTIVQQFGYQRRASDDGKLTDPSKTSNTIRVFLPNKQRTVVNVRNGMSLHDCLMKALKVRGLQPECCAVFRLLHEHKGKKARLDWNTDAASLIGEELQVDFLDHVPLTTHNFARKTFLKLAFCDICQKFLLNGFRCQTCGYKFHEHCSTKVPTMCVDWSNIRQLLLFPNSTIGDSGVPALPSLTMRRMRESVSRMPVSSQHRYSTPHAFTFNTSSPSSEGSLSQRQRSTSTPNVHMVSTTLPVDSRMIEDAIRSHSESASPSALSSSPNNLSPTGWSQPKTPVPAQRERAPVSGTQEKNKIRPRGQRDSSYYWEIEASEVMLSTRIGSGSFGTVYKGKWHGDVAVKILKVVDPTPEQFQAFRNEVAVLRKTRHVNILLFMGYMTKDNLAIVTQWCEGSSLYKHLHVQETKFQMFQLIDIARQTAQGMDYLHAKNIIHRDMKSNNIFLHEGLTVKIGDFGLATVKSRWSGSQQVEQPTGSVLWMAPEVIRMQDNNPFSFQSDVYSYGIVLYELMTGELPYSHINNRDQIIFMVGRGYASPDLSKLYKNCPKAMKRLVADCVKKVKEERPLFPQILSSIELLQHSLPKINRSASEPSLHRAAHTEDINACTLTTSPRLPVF
Experiment [12] deals with Macrophage-stimulating protein receptor (Homo sapiens) (UniProt Q04912). As to the kind of experiment: Inhibition of human recombinant RON at 15 nM related to control ULK1.
In experiment [13] the target is Ribosomal protein S6 kinase alpha-5 (Homo sapiens) (UniProt O75582). Briefly: Inhibition of human recombinant MSK1 at 15 nM in presence of ATP by radiometric assay relative to control.

Chain of Ephrin type-A receptor 4 (Homo sapiens) (P54764 whole entry): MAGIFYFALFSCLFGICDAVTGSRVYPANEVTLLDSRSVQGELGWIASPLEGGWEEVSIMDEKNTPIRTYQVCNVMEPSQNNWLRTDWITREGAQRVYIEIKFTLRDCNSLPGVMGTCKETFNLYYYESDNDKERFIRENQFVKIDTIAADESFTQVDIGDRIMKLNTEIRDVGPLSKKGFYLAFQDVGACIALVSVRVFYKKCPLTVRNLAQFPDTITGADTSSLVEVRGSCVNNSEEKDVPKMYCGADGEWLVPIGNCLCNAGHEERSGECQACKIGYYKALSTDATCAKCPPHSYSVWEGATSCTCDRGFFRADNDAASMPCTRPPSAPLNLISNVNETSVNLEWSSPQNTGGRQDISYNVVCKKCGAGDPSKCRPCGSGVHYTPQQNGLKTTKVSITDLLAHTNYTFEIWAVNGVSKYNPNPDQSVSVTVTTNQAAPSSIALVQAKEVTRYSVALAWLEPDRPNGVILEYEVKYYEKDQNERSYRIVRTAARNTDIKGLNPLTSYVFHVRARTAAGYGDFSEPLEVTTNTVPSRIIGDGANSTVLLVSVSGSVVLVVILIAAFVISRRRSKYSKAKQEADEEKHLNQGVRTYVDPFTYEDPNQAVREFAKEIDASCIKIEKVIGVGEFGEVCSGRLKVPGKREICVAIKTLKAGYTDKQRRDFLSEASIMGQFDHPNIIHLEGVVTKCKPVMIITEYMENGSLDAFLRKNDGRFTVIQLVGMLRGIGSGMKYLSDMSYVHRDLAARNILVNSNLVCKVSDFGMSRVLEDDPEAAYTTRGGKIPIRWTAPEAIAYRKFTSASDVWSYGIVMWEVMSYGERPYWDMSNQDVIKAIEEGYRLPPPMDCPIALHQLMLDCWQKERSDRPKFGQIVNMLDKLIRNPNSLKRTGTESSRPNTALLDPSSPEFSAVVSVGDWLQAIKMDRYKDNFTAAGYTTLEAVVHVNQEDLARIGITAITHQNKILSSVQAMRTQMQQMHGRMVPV

Consider `O=C(N[C@@H](C1CC1)C(F)(F)F)c1cc(-c2cnn3cc(-c4ccc(F)cc4)cnc23)cs1`, for which the fold change (FC) in [1] was determined as 0. Besides, the inhibition in experiment [2] was found to be 0%.
Consider `CNC(=O)c1ccccc1Oc1nc(Nc2cc(OC)c(OC)c(OC)c2)ncc1Br`, for which the inhibition turned out to be 15% in [3]; 7% in experiment [4]; 12% in experiment [5]; 15% in [6]; 66% in experiment [7]; 0% in experiment [8]. For the same compound, in [9], the fold change (FC) was found to be 0.26.
In experiment [10], `CC(C)[C@H](NC(=O)c1cc(-c2cnn3cc(-c4ccc(OCCN5CCCCC5)cc4)cnc23)cs1)C(F)(F)F` came in with a concentration for a half-maximal effect (EC50) of 83 nM. Also, the values for the inhibition in experiment [11] and in experiment [13] were 8% and 2%, respectively. Besides, the fold change (FC) in [12] turned out to be 0.02.

For the origin of these results see ChEMBL document CHEMBL5653631, “A Potent and Selective ULK1 Inhibitor Suppresses Autophagy and Sensitizes Cancer Cells to Nutrient Stress” (iScience, 2018).
